# Experimental data taken from US6737383B1, “Herbicidal oxadiazolidines” (priority 1999, dated 2004).
# Experiments:
# surinam grass = assay: Test B pre/postemergence surinam grass; assay type: in vivo, Brachiaria decumbens
# Procedure, shortened: (§1)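 Test chemicals in a non-phytotoxic solvent mixture with surfactant were sprayed preemergence onto planted seeds and postemergence onto plants 2 to 18 cm tall (1- to 4-leaf stage). After twelve to sixteen days in a greenhouse, injury was visually rated against untreated controls from 0 (no effect) to 10 (complete control).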
# corn = assay: Test B pre/postemergence corn; assay type: in vivo, Zea mays
# Procedure, shortened: as §1
# rape = assay: Test B pre/postemergence rape; assay type: in vivo, Brassica napus
# Procedure, shortened: as §1
# pigweed = assay: Test B pre/postemergence pigweed; assay type: in vivo, Amaranthus retroflexus
# Procedure, shortened: as §1
# crabgrass = assay: Test B pre/postemergence crabgrass; assay type: in vivo, Digitaria sanguinalis
# Procedure, shortened: as §1
# purple nutsedge = assay: Test B pre/postemergence purple nutsedge; assay type: in vivo, Cyperus rotundus
# Procedure, shortened: as §1
# wheat = assay: Test B pre/postemergence wheat; assay type: in vivo, Triticum aestivum
# Procedure, shortened: as §1
# sugar beet = assay: Test B pre/postemergence sugar beet; assay type: in vivo, Beta vulgaris
# Procedure, shortened: as §1
# morningglory = assay: Test B pre/postemergence morningglory; assay type: in vivo, Ipomoea hederacea
# Procedure, shortened: as §1
# velvetleaf = assay: Test B pre/postemergence velvetleaf; assay type: in vivo, Abutilon theophrasti
# Procedure, shortened: as §1
# soybean = assay: Test B pre/postemergence soybean; assay type: in vivo, Glycine max
# Procedure, shortened: as §1
# bedstraw = assay: Test B pre/postemergence bedstraw; assay type: in vivo, Galium aparine
# Procedure, shortened: as §1
# blackgrass = assay: Test B pre/postemergence blackgrass; assay type: in vivo, Alopecurus myosuroides
# Procedure, shortened: as §1
# giant foxtail = assay: Test B pre/postemergence giant foxtail; assay type: in vivo, Setaria faberii
# Procedure, shortened: as §1
# wild oat = assay: Test B pre/postemergence wild oat; assay type: in vivo, Avena fatua
# Procedure, shortened: as §1
# cocklebur = assay: Test B pre/postemergence cocklebur; assay type: in vivo, Xanthium strumarium
# Procedure, shortened: as §1
# [1] = Preemergence, Rate 62 g/ha, scale of 0 to 10 where 0 is no effect and 10 is complete control
# [2] = Preemergence, Rate 125 g/ha, scale of 0 to 10 where 0 is no effect and 10 is complete control
# [3] = Preemergence, Rate 250 g/ha, scale 0 to 10 (0 no effect, 10 complete control)
# [4] = Preemergence, Rate 500 g/ha, scale of 0 to 10 where 0 is no effect and 10 is complete control
# [5] = Postemergence, Rate 62 g/ha, scale 0 to 10, 0 is no effect, 10 is complete control
# [6] = Postemergence, Rate 125 g/ha, scale of 0 to 10 where 0 is no effect and 10 is complete control
# [7] = Preemergence, Rate 250 g/ha, scale 0 (no effect) to 10 (complete control)
# [8] = Rate 250 g/ha, Postemergence, scale 0 to 10, 0 is no effect, 10 is complete control
# [9] = Rate 500 g/ha, Postemergence, scale 0 to 10, 0 is no effect, 10 is complete control
smiles,measurement,setting,value
CCC(C)N(C(=O)n1oc(=O)n(C(C)C)c1=O)c1ccc(F)cc1 (stereo not shown) [Compound 689],B. signalgrass plant response rating,surinam grass; [1],2
same,"Plant response rating, B. signalgrass",surinam grass; [2],4
same,"Plant response rating, B. signalgrass",surinam grass; [3],9
same,"Plant response rating, B. signalgrass",surinam grass; [4],10
same,Corn plant response rating,corn; [1],0
same,"Plant response rating, Corn",corn; [2],6
same,"Plant response rating, Corn",corn; [3],9
same,Rape plant response rating,rape; [1],0
same,"Plant response rating, Rape",rape; [2],0
same,Redroot pigweed plant response rating,pigweed; [1],3
same,"Plant response rating, Redroot pigweed",pigweed; [2],7
same,Crabgrass plant response rating,crabgrass; [1],9
same,"Plant response rating, Crabgrass",crabgrass; [2],9
same,"Plant response rating, Crabgrass",crabgrass; [3],10
same,Nutsedge plant response rating,purple nutsedge; [1],0
same,"Plant response rating, Nutsedge",purple nutsedge; [2],0
same,Wheat plant response rating,wheat; [1],0
same,"Plant response rating, Wheat",wheat; [2],0
same,Sugarbeets plant response rating,sugar beet; [1],0
same,"Plant response rating, Sugarbeets",sugar beet; [2],2
same,Morningglory plant response rating,morningglory; [1],0
same,"Plant response rating, Morningglory",morningglory; [2],3
same,Velvetleaf plant response rating,velvetleaf; [1],2
same,"Plant response rating, Velvetleaf",velvetleaf; [2],3
same,Soybean plant response rating,soybean; [1],0
same,"Plant response rating, Soybean",soybean; [2],0
same,Bedstraw plant response rating,bedstraw; [1],0
same,"Plant response rating, Bedstraw",bedstraw; [2],0
same,"Plant response rating, Bedstraw",bedstraw; [3],7
same,"Plant response rating, Bedstraw",bedstraw; [4],5
same,Blackgrass plant response rating,blackgrass; [1],9
same,"Plant response rating, Blackgrass",blackgrass; [2],9
same,"Plant response rating, Blackgrass",blackgrass; [3],10
same,"Plant response rating, Blackgrass",blackgrass; [4],10
same,Giant foxtail plant response rating,giant foxtail; [1],10
same,"Plant response rating, Giant foxtail",giant foxtail; [2],10
same,Wild oats plant response rating,wild oat; [1],7
same,"Plant response rating, Wild oats",wild oat; [2],9
same,Cocklebur plant response rating,cocklebur; [1],0
same,"Plant response rating, Cocklebur",cocklebur; [2],0
same,"Plant response rating, Cocklebur",cocklebur; [3],0
same,"Plant response rating, Cocklebur",cocklebur; [4],0
CC(C)N(C(=O)n1oc(=O)n(C(C)C(=O)N2CCOCC2)c1=O)c1ccc(Cl)cc1 (stereo not shown) [Compound 703],B. signalgrass plant response rating,surinam grass; [1],2
same,"Plant response rating, B. signalgrass",surinam grass; [2],3
same,"Plant response rating, B. signalgrass",surinam grass; [3],3
same,"Plant response rating, B. signalgrass",surinam grass; [4],8
same,Corn plant response rating,corn; [1],0
same,"Plant response rating, Corn",corn; [2],0
same,"Plant response rating, Corn",corn; [3],0
same,Rape plant response rating,rape; [1],0
same,"Plant response rating, Rape",rape; [2],0
same,Redroot pigweed plant response rating,pigweed; [1],0
same,"Plant response rating, Redroot pigweed",pigweed; [2],4
same,Crabgrass plant response rating,crabgrass; [1],5
same,"Plant response rating, Crabgrass",crabgrass; [2],8
same,"Plant response rating, Crabgrass",crabgrass; [3],9
same,Nutsedge plant response rating,purple nutsedge; [1],0
same,"Plant response rating, Nutsedge",purple nutsedge; [2],0
same,Wheat plant response rating,wheat; [1],0
same,"Plant response rating, Wheat",wheat; [2],0
same,Sugarbeets plant response rating,sugar beet; [1],0
same,"Plant response rating, Sugarbeets",sugar beet; [2],0
same,Morningglory plant response rating,morningglory; [1],0
same,"Plant response rating, Morningglory",morningglory; [2],0
same,Velvetleaf plant response rating,velvetleaf; [1],0
same,"Plant response rating, Velvetleaf",velvetleaf; [2],0
same,Soybean plant response rating,soybean; [1],0
same,"Plant response rating, Soybean",soybean; [2],0
same,Bedstraw plant response rating,bedstraw; [1],0
same,"Plant response rating, Bedstraw",bedstraw; [2],0
same,"Plant response rating, Bedstraw",bedstraw; [3],0
same,"Plant response rating, Bedstraw",bedstraw; [4],0
same,Blackgrass plant response rating,blackgrass; [1],0
same,"Plant response rating, Blackgrass",blackgrass; [2],3
same,"Plant response rating, Blackgrass",blackgrass; [3],6
same,"Plant response rating, Blackgrass",blackgrass; [4],8
same,Giant foxtail plant response rating,giant foxtail; [1],5
same,"Plant response rating, Giant foxtail",giant foxtail; [2],7
same,Wild oats plant response rating,wild oat; [1],0
same,"Plant response rating, Wild oats",wild oat; [2],0
same,Cocklebur plant response rating,cocklebur; [1],0
same,"Plant response rating, Cocklebur",cocklebur; [2],0
same,"Plant response rating, Cocklebur",cocklebur; [3],0
same,"Plant response rating, Cocklebur",cocklebur; [4],0
CC(C)N(C(=O)n1oc(=O)n(CC(F)F)c1=O)c1ccc(F)cc1F [Compound 711],"Plant response rating, B. signalgrass",surinam grass; [5],4
same,B. signalgrass plant response rating,surinam grass; [6],6
same,B. signalgrass plant response rating,surinam grass; [1],2
same,"Plant response rating, B. signalgrass",surinam grass; [2],2
same,B. signalgrass plant response rating,surinam grass; [7],7
same,"Plant response rating, B. signalgrass",surinam grass; [4],8
same,B. signalgrass plant response rating,surinam grass; [8],6
same,B. signalgrass plant response rating,surinam grass; [9],8
same,"Plant response rating, Corn",corn; [5],0
same,Corn plant response rating,corn; [6],0
same,Corn plant response rating,corn; [1],0
same,"Plant response rating, Corn",corn; [2],0
same,Corn plant response rating,corn; [7],0
same,Corn plant response rating,corn; [8],0
same,Corn plant response rating,corn; [9],4
same,"Plant response rating, Rape",rape; [5],0
same,Rape plant response rating,rape; [6],0
same,Rape plant response rating,rape; [1],1
same,"Plant response rating, Rape",rape; [2],6
same,Rape plant response rating,rape; [7],7
same,Rape plant response rating,rape; [8],2
same,Rape plant response rating,rape; [9],4
same,"Plant response rating, Redroot pigweed",pigweed; [5],3
same,Redroot pigweed plant response rating,pigweed; [6],7
same,Redroot pigweed plant response rating,pigweed; [1],7
same,"Plant response rating, Redroot pigweed",pigweed; [2],7
same,Redroot pigweed plant response rating,pigweed; [7],9
same,Redroot pigweed plant response rating,pigweed; [8],9
same,Redroot pigweed plant response rating,pigweed; [9],10
same,"Plant response rating, Crabgrass",crabgrass; [5],4
same,Crabgrass plant response rating,crabgrass; [6],8
same,Crabgrass plant response rating,crabgrass; [1],8
same,"Plant response rating, Crabgrass",crabgrass; [2],9
same,Crabgrass plant response rating,crabgrass; [7],10
same,Crabgrass plant response rating,crabgrass; [8],9
same,Crabgrass plant response rating,crabgrass; [9],10
same,"Plant response rating, Nutsedge",purple nutsedge; [5],0
same,Nutsedge plant response rating,purple nutsedge; [6],0
same,Nutsedge plant response rating,purple nutsedge; [1],0
same,Nutsedge plant response rating,purple nutsedge; [7],0
same,Nutsedge plant response rating,purple nutsedge; [8],3
same,Nutsedge plant response rating,purple nutsedge; [9],5
same,"Plant response rating, Wheat",wheat; [5],0
same,Wheat plant response rating,wheat; [6],0
same,Wheat plant response rating,wheat; [1],2
same,"Plant response rating, Wheat",wheat; [2],6
same,Wheat plant response rating,wheat; [7],8
same,Wheat plant response rating,wheat; [8],3
same,Wheat plant response rating,wheat; [9],5
same,"Plant response rating, Sugarbeets",sugar beet; [5],1
same,Sugarbeets plant response rating,sugar beet; [6],2
same,Sugarbeets plant response rating,sugar beet; [1],5
same,"Plant response rating, Sugarbeets",sugar beet; [2],6
same,Sugarbeets plant response rating,sugar beet; [7],8
same,Sugarbeets plant response rating,sugar beet; [8],2
same,Sugarbeets plant response rating,sugar beet; [9],3
same,"Plant response rating, Morningglory",morningglory; [5],2
same,Morningglory plant response rating,morningglory; [6],2
same,Morningglory plant response rating,morningglory; [1],0
same,"Plant response rating, Morningglory",morningglory; [2],1
same,Morningglory plant response rating,morningglory; [7],3
same,Morningglory plant response rating,morningglory; [8],4
same,Morningglory plant response rating,morningglory; [9],4
same,"Plant response rating, Velvetleaf",velvetleaf; [5],3
same,Velvetleaf plant response rating,velvetleaf; [6],5
same,Velvetleaf plant response rating,velvetleaf; [1],4
same,"Plant response rating, Velvetleaf",velvetleaf; [2],6
same,Velvetleaf plant response rating,velvetleaf; [7],6
same,Velvetleaf plant response rating,velvetleaf; [8],6
same,Velvetleaf plant response rating,velvetleaf; [9],6
same,"Plant response rating, Soybean",soybean; [5],1
same,Soybean plant response rating,soybean; [6],4
same,Soybean plant response rating,soybean; [1],0
same,"Plant response rating, Soybean",soybean; [2],0
same,Soybean plant response rating,soybean; [7],0
same,Soybean plant response rating,soybean; [8],5
same,Soybean plant response rating,soybean; [9],6
same,Bedstraw plant response rating,bedstraw; [1],2
same,"Plant response rating, Bedstraw",bedstraw; [2],3
same,Bedstraw plant response rating,bedstraw; [7],6
same,"Plant response rating, Bedstraw",bedstraw; [4],7
same,Bedstraw plant response rating,bedstraw; [8],8
same,"Plant response rating, Blackgrass",blackgrass; [5],3
same,Blackgrass plant response rating,blackgrass; [6],7
same,Blackgrass plant response rating,blackgrass; [1],6
same,"Plant response rating, Blackgrass",blackgrass; [2],6
same,Blackgrass plant response rating,blackgrass; [7],8
same,"Plant response rating, Blackgrass",blackgrass; [4],9
same,Blackgrass plant response rating,blackgrass; [8],7
same,Blackgrass plant response rating,blackgrass; [9],7
same,"Plant response rating, Giant foxtail",giant foxtail; [5],6
same,Giant foxtail plant response rating,giant foxtail; [6],8
same,Giant foxtail plant response rating,giant foxtail; [1],10
same,"Plant response rating, Giant foxtail",giant foxtail; [2],10
same,Giant foxtail plant response rating,giant foxtail; [7],10
same,Giant foxtail plant response rating,giant foxtail; [8],9
same,Giant foxtail plant response rating,giant foxtail; [9],9
same,"Plant response rating, Wild oats",wild oat; [5],0
same,Wild oats plant response rating,wild oat; [6],0
same,Wild oats plant response rating,wild oat; [1],7
same,"Plant response rating, Wild oats",wild oat; [2],7
same,Wild oats plant response rating,wild oat; [7],9
same,Wild oats plant response rating,wild oat; [8],2
same,Wild oats plant response rating,wild oat; [9],4
same,"Plant response rating, Cocklebur",cocklebur; [5],1
same,Cocklebur plant response rating,cocklebur; [6],1
same,Cocklebur plant response rating,cocklebur; [1],0
same,"Plant response rating, Cocklebur",cocklebur; [2],0
same,Cocklebur plant response rating,cocklebur; [7],0
same,"Plant response rating, Cocklebur",cocklebur; [4],0
same,Cocklebur plant response rating,cocklebur; [8],2
same,Cocklebur plant response rating,cocklebur; [9],7
